For data set [1] the following is noted: ethylene glycol/heptane, cited from earlier work.
Data set [2] is described as follows: Partition coefficient Peh in ethylene glycol/heptane (permeability, log Peh). The note with it: UPLC peak area at 280 nm. Type of data set: physicochemical. From the text:
(§1) We next examined the effect of our linkers on the biopharmaceutical properties of setmelanotide. The capacity of setmelanotide (SMT) to regulate appetite depends on its ability to penetrate the blood–brain barrier and to activate melanocortin-4 (MC4) receptors in the brain.[79],[80] […] To assess cell permeability, we measured the partition coefficient Peh of our carbocyclic peptides in a mixture of ethylene glycol and heptane.[81]−[84] […] Thus, log Peh values are a good approximation of in vivo permeabilities. […] Finally, we determined the stability of our carbocyclic peptides to aqueous hydrolysis and to reductive cleavage by glutathione (GSH), an approximate measure of their plasma stability.[85] GSH in the cytoplasm can reduce disulfide bonds to dicysteine peptides and can also cleave disulfide bonds through a disulfide exchange reaction.[18]−[21] […] All measurements were compared to setmelanotide (SMT).
(§2) (1 picture or pasted object on this page, not shown here)

The nature of data set [3]: Stability to reductive cleavage / disulfide exchange by glutathione (GSH). In kind it is in vitro ADME. The note with it: pH 7.4, 37 °C. From the text: We next examined the effect of our linkers on the biopharmaceutical properties of setmelanotide. The capacity of setmelanotide (SMT) to regulate appetite depends on its ability to penetrate the blood–brain barrier and to activate melanocortin-4 (MC4) receptors in the brain.[79],[80] Replacing the −SS– bond of SMT with more lipophilic −CC– linkages could improve the CNS permeability of SMT and could also enhance its proteolytic stability. […] For aqueous solubility, we measured solvation in deionized water (pH 6 at 25 °C). […] To assess cell permeability, we measured the partition coefficient Peh of our carbocyclic peptides in a mixture of ethylene glycol and heptane.[81]−[84] […] Thus, log Peh values are a good approximation of in vivo permeabilities. […]. Thus, many of our carbocyclic analogs should have improved (up to 2.6-fold) blood–brain penetrance in vivo. Finally, we determined the stability of our carbocyclic peptides to aqueous hydrolysis and to reductive cleavage by glutathione (GSH), an approximate measure of their plasma stability.[85] GSH in the cytoplasm can reduce disulfide bonds to dicysteine peptides and can also cleave disulfide bonds through a disulfide exchange reaction.[18]−[21] […] The products were analyzed by LC-MS. […]

Data set [4] in a line: Hydrolytic stability at pH 8.5, 50 °C, LC-MS analysis. Type of data set: physicochemical. The note with it: 16 h.
Description: as §1, §2

Where [5] appears, read: common small molecule CNS drugs.

Read-outs that look alike come from different tables or passages of the source.

With `Cc1cc(=O)n(-c2ccccc2)n1C` [antipyrine], in data set [1] (setting [5]), the “log Peh” value is on record as −2.28. As to `NC(=O)c1ccccc1` [benzamide], in data set [1] (reference solutes quoted 'for reference'), the “log Peh” value is reported as −3.69. Regarding `Clc1cccc(Cl)c1N=C1NCCN1` [clonidine], the “log Peh” value in data set [1] (setting [5]) is −1.80.

Consider `c1cc(CN2CCCCC2)cc(OCCCNc2nc3ccccc3s2)c1` [zolantidine], for which, in data set [1] (setting [5]), the “log Peh” value is −1.47. For the molecule setmelanotide [SMT], the “log Peh” value in data set [2] is −1.16. Further, the “mixed disulfide formed (disulfide exchange)” value in data set [3] (1 equiv. GSH, after 24 h) amounted to 2%; in data set [3] (10 equiv. GSH) it was 17%. Also, the “hydrolysis outcome (in words)” value in data set [4] is given as “loss of a single sulfur atom”.

These data come from article PMC9686213, “Peptide Carbocycles: From −SS– to −CC– via a Late-Stage “Snip-and-Stitch”” (ACS Central Science, 2022).
